Legend:
[1] = target: T1, von Hippel-Lindau disease tumor suppressor/SWI/SNF-related matrix-associated actin-dependent regulator of chromatin subfamily A member 2 (Homo sapiens, UniProt P51531+P40337); experiment: PROTAC activity at VHL/C-terminal HiBiT fused SMARCA2 in human HeLa cells assessed as induction of SMARCA2 degradation by measuring maximal efficacy incubated for 24 hrs by Nano-Glo HiBiT analysis relative to control; format: cell-based
Target sequence in this assay (P40337 whole entry, looked up, the tested form may be a part): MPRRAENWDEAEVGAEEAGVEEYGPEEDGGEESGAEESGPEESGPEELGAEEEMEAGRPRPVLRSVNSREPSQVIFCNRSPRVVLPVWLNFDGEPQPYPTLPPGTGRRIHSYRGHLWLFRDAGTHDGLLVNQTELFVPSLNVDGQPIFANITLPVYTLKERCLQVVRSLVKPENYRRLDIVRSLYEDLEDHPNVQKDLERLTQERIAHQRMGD
Target sequence in this assay (P51531 whole entry, looked up, the tested form may be a part): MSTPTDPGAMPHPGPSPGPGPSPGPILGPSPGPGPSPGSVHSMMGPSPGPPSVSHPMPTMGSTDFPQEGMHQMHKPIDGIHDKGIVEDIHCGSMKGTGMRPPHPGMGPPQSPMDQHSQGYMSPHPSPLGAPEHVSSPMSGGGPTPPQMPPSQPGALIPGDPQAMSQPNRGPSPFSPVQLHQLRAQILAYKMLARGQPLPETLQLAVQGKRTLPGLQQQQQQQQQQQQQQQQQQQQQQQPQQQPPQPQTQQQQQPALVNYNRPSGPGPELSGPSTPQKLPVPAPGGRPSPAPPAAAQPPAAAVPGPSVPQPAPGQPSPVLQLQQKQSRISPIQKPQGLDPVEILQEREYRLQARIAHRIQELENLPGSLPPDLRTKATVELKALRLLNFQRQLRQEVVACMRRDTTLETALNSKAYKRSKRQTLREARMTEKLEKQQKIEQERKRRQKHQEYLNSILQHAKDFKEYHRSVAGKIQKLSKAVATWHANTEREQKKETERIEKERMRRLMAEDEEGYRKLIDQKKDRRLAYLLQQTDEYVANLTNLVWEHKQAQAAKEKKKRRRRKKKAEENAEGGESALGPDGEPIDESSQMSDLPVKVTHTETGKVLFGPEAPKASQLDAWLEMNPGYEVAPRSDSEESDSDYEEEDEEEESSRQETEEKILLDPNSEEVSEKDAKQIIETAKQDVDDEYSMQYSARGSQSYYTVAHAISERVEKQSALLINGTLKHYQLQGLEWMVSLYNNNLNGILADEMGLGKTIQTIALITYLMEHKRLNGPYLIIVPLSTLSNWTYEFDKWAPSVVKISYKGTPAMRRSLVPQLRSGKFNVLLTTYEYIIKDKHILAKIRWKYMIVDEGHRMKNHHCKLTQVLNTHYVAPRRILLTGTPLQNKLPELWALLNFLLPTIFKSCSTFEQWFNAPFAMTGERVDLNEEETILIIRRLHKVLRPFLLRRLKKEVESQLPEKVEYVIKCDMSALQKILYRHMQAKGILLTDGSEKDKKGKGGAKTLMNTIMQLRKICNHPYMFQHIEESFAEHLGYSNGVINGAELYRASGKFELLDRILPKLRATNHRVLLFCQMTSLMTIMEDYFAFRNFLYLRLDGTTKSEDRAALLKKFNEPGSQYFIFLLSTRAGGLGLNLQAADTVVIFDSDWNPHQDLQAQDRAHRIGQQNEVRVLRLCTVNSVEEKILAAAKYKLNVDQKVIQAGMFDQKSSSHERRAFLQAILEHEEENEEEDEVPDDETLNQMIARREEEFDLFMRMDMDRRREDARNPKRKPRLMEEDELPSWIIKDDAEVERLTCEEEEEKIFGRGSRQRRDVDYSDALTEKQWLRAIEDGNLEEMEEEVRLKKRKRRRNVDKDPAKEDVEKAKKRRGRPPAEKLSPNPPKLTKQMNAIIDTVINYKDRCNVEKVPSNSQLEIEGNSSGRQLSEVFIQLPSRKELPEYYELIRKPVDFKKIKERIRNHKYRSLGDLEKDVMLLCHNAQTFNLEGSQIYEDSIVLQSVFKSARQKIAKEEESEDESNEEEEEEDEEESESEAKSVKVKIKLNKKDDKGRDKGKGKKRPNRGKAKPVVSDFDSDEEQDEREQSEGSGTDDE

[2] = target: T1, von Hippel-Lindau disease tumor suppressor/SWI/SNF-related matrix-associated actin-dependent regulator of chromatin subfamily A member 2; experiment: PROTAC activity at VHL/C-terminal HiBiT fused SMARCA2 in human HeLa cells assessed as induction of SMARCA2 degradation incubated for 48 hrs by Nano-Glo HiBiT analysis; format: cell-based
[3] = target: T2, von Hippel-Lindau disease tumor suppressor/SWI/SNF-related matrix-associated actin-dependent regulator of chromatin subfamily A member 4 (Homo sapiens, UniProt P51532+P40337); experiment: PROTAC activity at VHL/C-terminal HiBiT fused SMARCA4 in human HeLa cells assessed as induction of SMARCA4 degradation incubated for 3 hrs by Nano-Glo HiBiT analysis; format: cell-based
Target sequence in this assay (P51532 whole entry, the tested form may be a part): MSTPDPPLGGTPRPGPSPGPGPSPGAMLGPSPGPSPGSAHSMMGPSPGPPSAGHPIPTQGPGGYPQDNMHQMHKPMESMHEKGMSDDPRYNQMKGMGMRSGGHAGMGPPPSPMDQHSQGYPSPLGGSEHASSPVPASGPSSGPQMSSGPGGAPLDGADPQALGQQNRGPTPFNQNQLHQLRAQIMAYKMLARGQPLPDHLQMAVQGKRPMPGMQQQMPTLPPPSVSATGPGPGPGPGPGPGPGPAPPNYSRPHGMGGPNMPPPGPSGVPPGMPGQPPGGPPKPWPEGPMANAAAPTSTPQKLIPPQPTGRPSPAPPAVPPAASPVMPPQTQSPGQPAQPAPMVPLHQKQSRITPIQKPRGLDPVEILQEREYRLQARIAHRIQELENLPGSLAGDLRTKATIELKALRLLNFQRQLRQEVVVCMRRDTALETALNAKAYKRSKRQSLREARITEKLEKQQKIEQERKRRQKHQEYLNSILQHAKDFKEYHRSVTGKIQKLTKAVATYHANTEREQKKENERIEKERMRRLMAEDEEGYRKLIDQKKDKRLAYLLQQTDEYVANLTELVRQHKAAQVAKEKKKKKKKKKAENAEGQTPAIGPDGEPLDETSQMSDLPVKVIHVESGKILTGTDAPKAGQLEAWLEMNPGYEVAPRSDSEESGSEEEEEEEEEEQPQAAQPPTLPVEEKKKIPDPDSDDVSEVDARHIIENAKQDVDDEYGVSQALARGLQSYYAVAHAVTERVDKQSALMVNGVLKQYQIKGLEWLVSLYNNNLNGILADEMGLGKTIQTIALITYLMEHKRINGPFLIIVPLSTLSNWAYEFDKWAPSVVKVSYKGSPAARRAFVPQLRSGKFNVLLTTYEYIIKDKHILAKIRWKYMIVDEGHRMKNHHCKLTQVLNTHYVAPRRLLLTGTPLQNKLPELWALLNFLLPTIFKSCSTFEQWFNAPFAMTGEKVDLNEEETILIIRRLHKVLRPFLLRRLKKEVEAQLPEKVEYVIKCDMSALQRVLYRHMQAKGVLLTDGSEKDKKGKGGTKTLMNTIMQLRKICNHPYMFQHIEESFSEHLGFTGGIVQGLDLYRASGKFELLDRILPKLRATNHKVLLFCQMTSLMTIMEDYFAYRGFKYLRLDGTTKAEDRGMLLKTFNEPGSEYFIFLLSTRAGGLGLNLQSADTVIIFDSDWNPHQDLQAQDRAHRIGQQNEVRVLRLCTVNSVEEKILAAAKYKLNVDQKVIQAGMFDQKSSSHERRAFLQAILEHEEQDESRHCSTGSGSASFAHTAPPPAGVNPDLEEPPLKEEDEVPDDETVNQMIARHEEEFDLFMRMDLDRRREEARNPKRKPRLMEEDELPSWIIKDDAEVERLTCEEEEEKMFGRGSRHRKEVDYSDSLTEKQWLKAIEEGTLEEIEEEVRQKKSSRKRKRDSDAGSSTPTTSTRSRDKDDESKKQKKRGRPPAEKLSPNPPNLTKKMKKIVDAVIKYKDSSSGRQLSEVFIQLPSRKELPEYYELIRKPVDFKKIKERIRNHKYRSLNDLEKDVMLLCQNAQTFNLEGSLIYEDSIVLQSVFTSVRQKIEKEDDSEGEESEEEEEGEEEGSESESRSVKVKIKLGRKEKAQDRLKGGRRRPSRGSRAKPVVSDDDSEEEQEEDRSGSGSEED
Target sequence in this assay (P40337 whole entry, the tested form may be a part): as the sequence (P40337 whole entry, looked up, the tested form may be a part) above

[4] = target: T2, von Hippel-Lindau disease tumor suppressor/SWI/SNF-related matrix-associated actin-dependent regulator of chromatin subfamily A member 4; experiment: PROTAC activity at VHL/C-terminal HiBiT fused SMARCA4 in human HeLa cells assessed as induction of SMARCA4 degradation by measuring maximal efficacy at 0.001 to 10 uM incubated for 3 hrs by Nano-Glo HiBiT analysis relative to control; format: cell-based; details: dose 0.001-10 µM
[5] = target: T2, von Hippel-Lindau disease tumor suppressor/SWI/SNF-related matrix-associated actin-dependent regulator of chromatin subfamily A member 4; experiment: PROTAC activity at VHL/C-terminal HiBiT fused SMARCA4 in human HeLa cells assessed as induction of SMARCA4 degradation incubated for 48 hrs by Nano-Glo HiBiT analysis; format: cell-based
Target sequence in this assay (P51532 whole entry, the tested form may be a part): as the sequence (P51532 whole entry, the tested form may be a part) above
Target sequence in this assay (P40337 whole entry, the tested form may be a part): as the sequence (P40337 whole entry, looked up, the tested form may be a part) above

[6] = target: T2, von Hippel-Lindau disease tumor suppressor/SWI/SNF-related matrix-associated actin-dependent regulator of chromatin subfamily A member 4; experiment: PROTAC activity at VHL/C-terminal HiBiT fused SMARCA4 in human HeLa cells assessed as induction of SMARCA4 degradation incubated for 1 to 48 hrs by Nano-Glo HiBiT analysis; format: cell-based; details: dose 0.001-10 µM, time 1-48 hrs
[7] = target: T1, von Hippel-Lindau disease tumor suppressor/SWI/SNF-related matrix-associated actin-dependent regulator of chromatin subfamily A member 2; experiment: PROTAC activity at VHL/wild-type SMARCA2 in human SK-MEL-5 cells assessed as induction of SMARCA2 degradation incubated for 24 hrs by Western blotting analysis; format: cell-based
[8] = target: T1, von Hippel-Lindau disease tumor suppressor/SWI/SNF-related matrix-associated actin-dependent regulator of chromatin subfamily A member 2; experiment: PROTAC activity at VHL/wild-type SMARCA2 in human SK-MEL-5 cells assessed as induction of SMARCA2 degradation at 0.001 to 1000 nM incubated for 24 hrs by Western blotting analysis relative to control; format: cell-based; details: dose 0.001-1000 nM
Target sequence in this assay (P40337 whole entry, looked up, the tested form may be a part): as above
Target sequence in this assay (P51531 whole entry, looked up, the tested form may be a part): as the sequence (P51531 whole entry, looked up, the tested form may be a part) above

NCI-H1793 = experiment: Antiproliferative activity against SMARCA4-deficient human NCI-H1793 cells assessed as cell growth inhibition measured after 7 days by WST-8 assay; format: functional; details: NCI-H1793, 168 h, time 7 day
SK-MEL-5 = experiment: Antiproliferative activity against SMARCA4-deficient human SK-MEL-5 cells assessed as cell growth inhibition measured after 7 days by WST-8 assay; format: functional; details: SK-MEL-5, 168 h, time 7 day
NCI-H647 = experiment: Antiproliferative activity against human NCI-H647 cells expressing wild-type SMARCA2 assessed as cell growth inhibition measured after 7 days by WST-8 assay; format: functional; details: NCI-H647, 168 h, time 7 day
NCI-H1299 = experiment: Antiproliferative activity against SMARCA4-deficient human NCI-H1299 cells assessed as cell growth inhibition by measuring maximal efficacy measured after 7 days by WST-8 assay relative to control; format: functional; details: time 7 day
NCI-H1693 = experiment: Antiproliferative activity against SMARCA4-deficient human NCI-H1693 cells assessed as cell growth inhibition by measuring maximal efficacy measured after 7 days by WST-8 assay relative to control; format: functional; details: time 7 day
[9] = Antiproliferative activity against SMARCA4-deficient human NCI-H1568 cells assessed as cell growth inhibition by measuring maximal efficacy measured after 7 days by WST-8 assay relative to control; format: functional; details: time 7 day
SK-MEL-28 = experiment: Antiproliferative activity against human SK-MEL-28 cells expressing wild-type SMARCA2 assessed as cell growth inhibition by measuring maximal efficacy measured after 7 days by WST-8 assay relative to control; format: functional; details: time 7 day
[10] = target: T1, von Hippel-Lindau disease tumor suppressor/SWI/SNF-related matrix-associated actin-dependent regulator of chromatin subfamily A member 2; experiment: In vivo PROTAC activity at VHL/SMARCA2 in SCID mouse xenografted with human NCI-H838 cells assessed as reduction of SMARCA2 level in tumor at 50 mg/kg, iv administered as single dose measured after 24 hrs by Western blotting analysis; format: functional, organism-based; parameters: scale not given: the % may be the effect or the level left
Target sequence in this assay (P40337 whole entry, looked up, the tested form may be a part): as the sequence (P40337 whole entry, looked up, the tested form may be a part) above
Target sequence in this assay (P51531 whole entry, looked up, the tested form may be a part): as the sequence (P51531 whole entry, looked up, the tested form may be a part) above

[11] = target: T1, von Hippel-Lindau disease tumor suppressor/SWI/SNF-related matrix-associated actin-dependent regulator of chromatin subfamily A member 2; experiment: In vivo PROTAC activity at VHL/SMARCA2 in SCID mouse xenografted with human NCI-H838 cells assessed as remaining activity in tumor at 50 mg/kg, iv administered as single dose measured after 48 hrs by Western blotting analysis (reference value: 100 +/- 7% ); format: functional, organism-based
Target sequence in this assay (P40337 whole entry, looked up, the tested form may be a part): as the sequence (P40337 whole entry, looked up, the tested form may be a part) above
Target sequence in this assay (P51531 whole entry, looked up, the tested form may be a part): as the sequence (P51531 whole entry, looked up, the tested form may be a part) above

[12] = target: T1, von Hippel-Lindau disease tumor suppressor/SWI/SNF-related matrix-associated actin-dependent regulator of chromatin subfamily A member 2; experiment: In vivo PROTAC activity at VHL/SMARCA2 in SCID mouse xenografted with human NCI-H838 cells assessed as remaining activity in tumor at 50 mg/kg, iv administered as single dose measured after 96 hrs by Western blotting analysis (reference value: 100 +/- 7% ); format: functional, organism-based
Target sequence in this assay (P40337 whole entry, looked up, the tested form may be a part): as the sequence (P40337 whole entry, looked up, the tested form may be a part) above
Target sequence in this assay (P51531 whole entry, looked up, the tested form may be a part): as the sequence (P51531 whole entry, looked up, the tested form may be a part) above

[13] = target: T1, von Hippel-Lindau disease tumor suppressor/SWI/SNF-related matrix-associated actin-dependent regulator of chromatin subfamily A member 2; experiment: In vivo PROTAC activity at VHL/SMARCA2 in SCID mouse xenografted with human MV4-11 cells assessed as reduction of SMARCA2 level in tumor at 50 mg/kg, iv administered as single dose measured after 24 hrs by Western blotting analysis; format: ADME, organism-based; parameters: scale not given: the % may be the effect or the level left
[14] = target: T1, von Hippel-Lindau disease tumor suppressor/SWI/SNF-related matrix-associated actin-dependent regulator of chromatin subfamily A member 2; experiment: In vivo PROTAC activity at VHL/SMARCA2 in SCID mouse xenografted with human MV4-11 cells assessed as reduction of SMARCA2 level in tumor at 50 mg/kg, iv administered as single dose measured after 72 hrs by Western blotting analysis; format: ADME, organism-based; parameters: scale not given: the % may be the effect or the level left
[15] = target: T1, von Hippel-Lindau disease tumor suppressor/SWI/SNF-related matrix-associated actin-dependent regulator of chromatin subfamily A member 2; experiment: In vivo PROTAC activity at VHL/SMARCA2 in SCID mouse xenografted with human MV4-11 cells assessed as reduction of SMARCA2 level in tumor at 50 mg/kg, iv administered as single dose measured after 96 hrs by Western blotting analysis; format: ADME, organism-based; parameters: scale not given: the % may be the effect or the level left
[16] = target: T1, von Hippel-Lindau disease tumor suppressor/SWI/SNF-related matrix-associated actin-dependent regulator of chromatin subfamily A member 2; experiment: In vivo PROTAC activity at VHL/SMARCA2 in SCID mouse xenografted with human MV4-11 cells assessed as remaining activity in tumor at 50 mg/kg, iv administered as single dose measured after 72 hrs by Western blotting analysis (reference value: 100 +/- 15 % ); format: ADME, organism-based
[17] = target: T2, von Hippel-Lindau disease tumor suppressor/SWI/SNF-related matrix-associated actin-dependent regulator of chromatin subfamily A member 4; experiment: In vivo PROTAC activity at VHL/SMARCA4 in SCID mouse xenografted with human MV4-11 cells assessed as reduction of SMARCA4 level in tumor at 50 mg/kg, iv administered as single dose measured after 6 hrs by Western blotting analysis; format: ADME, organism-based; parameters: scale not given: the % may be the effect or the level left
Target sequence in this assay (P51532 whole entry, the tested form may be a part): as the sequence (P51532 whole entry, the tested form may be a part) above
Target sequence in this assay (P40337 whole entry, the tested form may be a part): as the sequence (P40337 whole entry, looked up, the tested form may be a part) above

[18] = target: T2, von Hippel-Lindau disease tumor suppressor/SWI/SNF-related matrix-associated actin-dependent regulator of chromatin subfamily A member 4; experiment: In vivo PROTAC activity at VHL/SMARCA4 in SCID mouse xenografted with human MV4-11 cells assessed as remaining activity in tumor at 50 mg/kg, iv administered as single dose measured after 2 hrs by Western blotting analysis (reference value: 100 +/- 15 % ); format: ADME, organism-based
Target sequence in this assay (P51532 whole entry, the tested form may be a part): as the sequence (P51532 whole entry, the tested form may be a part) above
Target sequence in this assay (P40337 whole entry, the tested form may be a part): as the sequence (P40337 whole entry, looked up, the tested form may be a part) above

[19] = Drug concentration in SCID mouse tumor xenografted with human MV4-11 cells at 50 mg/kg, iv measured after 72 hrs by LC-MS/MS method; format: ADME, organism-based, Neoplasm; details: read-out: Ct
[20] = Toxicity in SCID mouse xenografted with human SK-MEL-5 cells assessed as effect on change in body weight at 50 mg/kg, iv administered twice a week measured after 3 weeks; format: organism-based; details: in vivo, 504 h

Cc1ncsc1-c1ccc([C@H](C)NC(=O)[C@@H]2C[C@@H](O)CN2C(=O)[C@@H](NC(=O)[C@H]2CC[C@H](CN3CC4(CCC(n5cc(-c6cc(-c7ccccc7O)nnc6N)cn5)CC4)C3)CC2)C(C)(C)C)cc1 gave an Emax [1] of 91%, a DC50 [2] of 11 nM and a DC50 [3] of over 3300 nM. The Emax [4] was 46%, the DC50 [5] was 174 nM and the Activity [6] was “Dose-Dependent Effect”. For the same compound, the DC50 [7] was 20 nM, the Emax [8] was 94% and the GI50 (NCI-H1793) was 21 nM. For the same compound, the GI50 (SK-MEL-5) was 15 nM, the GI50 (NCI-H647) was 3100 nM and the Imax (NCI-H1299) was 41%. The Imax (NCI-H1693) was 79%, the Imax [9] was 79% and the Imax (SK-MEL-28) was 15%. It also gave an Activity [10] of 91%, an Activity [11] of 25% and an Activity [12] of 33%. The Activity [13] was 86%, the Activity [14] was 56% and the Activity [15] was 74%. It also gave an Activity [16] of 44%, an Activity [17] of 17% and an Activity [18] of 93%. The concentration at 72 h [19] was 370 ng/g and the Activity [20] was “Non-Toxic”.

Reference: ChEMBL document CHEMBL5325488, “Discovery of SMD-3040 as a Potent and Selective SMARCA2 PROTAC Degrader with Strong in vivo Antitumor Activity” (J Med Chem, 2023)
